We go through 46 compounds from US20110028509A1, “Sulfonamides” (MERCK SERONO SA, priority 2008, published 2011).

Assay [1] addresses T1, CXCR3 (Homo sapiens, UniProt P49682).
T1 sequence (P49682 1-368): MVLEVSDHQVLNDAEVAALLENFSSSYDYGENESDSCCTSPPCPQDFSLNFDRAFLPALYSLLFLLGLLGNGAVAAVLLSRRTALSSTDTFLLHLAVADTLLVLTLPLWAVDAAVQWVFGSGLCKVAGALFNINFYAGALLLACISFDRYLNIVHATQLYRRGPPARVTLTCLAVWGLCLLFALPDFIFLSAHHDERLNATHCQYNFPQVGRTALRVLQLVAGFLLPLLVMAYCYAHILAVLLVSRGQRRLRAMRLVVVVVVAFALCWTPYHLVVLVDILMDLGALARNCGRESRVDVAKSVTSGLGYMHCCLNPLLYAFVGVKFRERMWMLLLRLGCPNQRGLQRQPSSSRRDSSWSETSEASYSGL
Nature of the assay: Chemotaxis assay ITAC (CXCL11), L1.2-CXCR3 cells. Format: cell-based. More on the design: expressed in transfected cells. The settings on record: 1 nM CXCL11 (I-TAC), 4 hours. How it is done:
Human CXCR3 cDNA was amplified by PCR from a human cells cDNA library (Clontech) and subcloned into pcDNA3.1 (Invitrogen). Murine pre-B L1.2 cells were transfected with hCXCR3-pcDNA3.1 and were grown at 37° C., 5% CO2 in RPMI 1640 medium (Invitrogen, USA) supplemented with 5% heat inactivated fetal calf serum (Cancerra, Australia), 2 mM glutamine (Invitrogen), 50 units ml−1 penicillin, 50 μml−1 streptomycin. Stable transfectant clonal populations were selected using 800 μg/ml geneticin.
L1.2-CXCR3 cells were grown for 24 hours at 0.5×10^6 cells/ml in chemotaxis medium containing 5 mM butyric acid (Sigma). Compounds were on one hand mixed with 1 nM of CXCL11 (I-TAC) in phenol-red free RPMI 1640 (invitrogen) supplemented with 5% fetal bovine serum in presence of 1% DMSO. The CXCL11/compounds mixture was then added to lower chambers of chemotaxis 96 well microplates (neuroprobe), and framed filters ([…] pore size) were put on top of the lower chambers. Compounds were on the other hand mixed with L1.2 CXCR3 cells and incubated in chemotaxis medium at 1.5×10^6 cells/ml in presence of 1% DMSO at 37° C., 5% CO2 for 30 minutes. Cells/compounds mixture was then added on top of the frame filters and migration was performed at 37° C., 5% CO2 for 4 hours. The number of migrated cells in the bottom chamber was determined using the CyQuant GR dye (Molecular Probe), according to the manufacturer.

Assay [2] addresses T1, CXCR3. The assay is described as follows: CXCR3 Ca2+ mobilization (FLIPR), stable hCXCR3-CHO cell line, I-TAC stimulated. Further details: host or cells: CHO cells stably expressing hCXCR3. To be noted: hCXCR3-CHO cells, I-TAC 100 nM stimulated Ca2+ response; read-out: Ca-ITAC. It is filed as cell-based. How it is done: Human chinese hamster ovary (CHO) cell line stably expressing hCXCR3 was purchased from Euroscreen (Belgium) and culture in HAM's F12 (Invitrogen) containing 10% heat inactivated fetal calf serum (Cancerra, Australia), 50 units ml−1 penicillin, 50 μml−1 streptomycin, (Invitrogen, USA) and 400 μg/ml geneticin (G418) (Calbiochem, San Diego), according to the manufacturer.
CXCR3Ca^2+ mobilization was measured using a stable hCXCR3—CHO cell line and a microtiter-plate based assay using FLIPR^TETRA™ (Molecular Devices). In more detail, cells were harvested and plated into black 384-well plates (Becton-Dickinson) at a density of 15 000 cells per well and grown in the incubator for 18 hours. On the next day the media was aspirated and replaced with the cell loading buffer (HBSS—(Invitrogen) based buffer containing calcium indicator and signal enhancer from a commercial Ca2+ assay kit (Becton Dickinson). The plates were incubated for 60 minutes in the incubator, the test compounds were added and the plates equilibrated for 20 minutes at room temperature.
Plates were placed into FLIPR and the CXCR3 agonist (I-TAC, 100 nM) stimulated fluorescence change was quantitated. The activity of CXCR3 antagonists was determined as percent of the CXCR3 ligand I-TAC in the absence of the test compounds (=100% activity).

On CXCR3 [1], `N#Cc1ccc(S(=O)(=O)N(Cc2ccccn2)C2(c3ccc(C(=O)NC4(c5ccccc5)CC4)cc3)CC2)cc1` [Example 176] showed an IC50 of 4.45 µM. With `COc1cc(OC)nc(CN(Cc2ccc(C(=O)O)cc2)S(=O)(=O)c2ccc(Cl)cc2)n1` [Example 328], the IC50 at CXCR3 [2] stood at 13 µM. Still for that read-out and setting: to `N#Cc1ccccc1CN(Cc1ccccn1)S(=O)(=O)c1ccc(Cl)cc1` [Example 196] belongs 13 µM; to `CC(C)(C)c1ccc(S(=O)(=O)N(Cc2ccc(C#N)cc2)Cc2ccccn2)cc1` [Example 177], 1.45 µM; to `O=S(=O)(c1ccccc1-c1ccccc1)N(Cc1ccc(-c2nnn[nH]2)cc1)Cc1ccccn1` [Example 253], 9.5 µM. Still for that read-out and setting: the figure for `CC(CCc1ccccc1)N(Cc1ccc(-c2nnn[nH]2)cc1)S(=O)(=O)c1ccc(Cl)cc1` (stereo not shown) [Example 224] is 1.5 µM; for `O=S(=O)(c1ccccc1Oc1ccccc1)N(Cc1ccc(-c2nnn[nH]2)cc1)Cc1ccccn1` [Example 237] it is 25 µM; for `CCOC(=O)c1ccc(CN(Cc2cccnc2)S(=O)(=O)c2ccc(Cl)cc2)cc1` [Example 159] it is 4 µM. On the same count and under the same terms, the figure for `N#Cc1ccc(CN(Cc2ccccn2)S(=O)(=O)c2cccc(Cl)c2)cc1` [Example 313] is 15 µM; for `O=S(=O)(c1ccc(Cl)cc1)N(Cc1cccc(-c2nnn[nH]2)c1)Cc1ccccn1` [Example 228] it is 2.8 µM; for `Cc1ccc(S(=O)(=O)N(Cc2ccc(-c3nnn[nH]3)cc2)Cc2ccccn2)cc1` [Example 139] it is 2 µM.

`CCOC(=O)C1(NC(=O)c2ccc(CN(Cc3ccccn3)S(=O)(=O)c3ccc(C#N)cc3)cc2)CC1` [Example 144]: on CXCR3 [2], the IC50 amounted to 0.14 µM. On the same count and under the same terms, the figure for `O=C(NC(Cc1ccc(O)cc1)C(=O)O)c1ccc(CN(Cc2ccccn2)S(=O)(=O)c2ccc(Cl)cc2)cc1` (stereo not shown) [Example 354] is 6 µM; for `CCOc1ccc(S(=O)(=O)N(Cc2ccc(C(=O)NC3(c4ccc(OC(F)(F)F)cc4)CC3)cc2)Cc2ccccn2)cc1` [Example 283] it is 7.5 µM. The same measure, in the same setting: to `O=S(=O)(c1ccc(Cl)cc1)N(Cc1ccc(-c2nnn[nH]2)cc1)Cc1cc(Cl)ccc1F` [Example 61, 4-chloro-N-(5-chloro-2-fluorobenzyl)-N-[4-(2H-tetrazol-5-yl)benzyl]benzene sulfonamide] belongs 0.2 µM. Same read-out and setting: to `N#Cc1ccc(S(=O)(=O)N(Cc2ccc(NC(=O)Cc3nnn[nH]3)cc2)Cc2ccccn2)cc1` [Example 300] belongs 12 µM; to `N#Cc1ccc(S(=O)(=O)N(Cc2ccc(C(=O)NC3(c4cccc(C#N)c4)CC3)cc2)Cc2cccnc2)cc1` [Example 111], 1.5 µM; to `Cc1cccc(S(=O)(=O)N(Cc2ccc(C#N)cc2)Cc2ccccn2)c1` [Example 175], 3.5 µM. `O=C(NC1(c2ccccc2)CC1)c1ccc(CN(Cc2ccc3cccnc3n2)S(=O)(=O)c2ccc(Cl)cc2)cc1` [Example 330]: the IC50 at CXCR3 [2] is 10 µM. `O=S(=O)(c1ccc(Cl)cc1)N(CCCc1ccccc1)Cc1ccc(-c2nnn[nH]2)cc1` [Example 221]: at CXCR3 [2], the IC50 was determined as 1.7 µM. On the same count and under the same terms, the figure for `CC(CN(Cc1ccc(-c2nnn[nH]2)cc1)S(=O)(=O)c1ccc(Cl)cc1)c1ccccc1` (stereo not shown) [Example 227] is 5 µM. The same measure, in the same setting: the figure for `O=C(NC1(c2ccccc2)CC1)c1ccc(CN(Cc2ccccn2)S(=O)(=O)c2ccc(Cl)c(Cl)c2)cc1` [Example 46] is 0.705 µM.

Regarding `N#Cc1ccc(CN(Cc2ccccn2)S(=O)(=O)c2ccccc2Cl)cc1` [Example 186], the IC50 on CXCR3 [2] was determined as 5 µM. The same measure, in the same setting: the figure for `O=C(NCC1CC1)c1ccc(CN(Cc2ccccn2)S(=O)(=O)c2ccc(Cl)c(Cl)c2)cc1` [Example 45] is 13 µM; for `CC(c1cccc(-c2nnn[nH]2)c1)N(Cc1ccccc1)S(=O)(=O)c1ccc(Cl)cc1` (stereo not shown) [Example 271] it is 5 µM; for `N#Cc1cccc(CN(Cc2ccccc2)S(=O)(=O)c2ccc(Cl)cc2)c1` [Example 230] it is 1.2 µM.

In the case of `C[C@H](c1ccc(NC(=O)C2(c3ccccc3)CC2)cc1)N(Cc1ccccn1)S(=O)(=O)c1ccc(Cl)cc1` [Example 168], the IC50 at CXCR3 [2] was found to be 3.33 µM. On the same count and under the same terms, the figure for `CCOc1ccc(S(=O)(=O)N(Cc2ccc(C(=O)NCCc3ccc(S(N)(=O)=O)cc3)cc2)Cc2cccnc2)cc1` [Example 95] is 2 µM; for `CCOc1ccc(S(=O)(=O)N(Cc2ccc(N3CCOCC3)cc2)Cc2ccccn2)cc1` [Example 269] it is 9 µM; for `CCOc1ccc(S(=O)(=O)N(Cc2ccc(C(=O)N[C@H]3[C@@H]4CN(C(C)=O)C[C@@H]43)cc2)Cc2cccnc2)cc1` [Example 108] it is 1.8 µM. The same measure, in the same setting: to `O=C(N[C@H](C(=O)O)c1ccccc1)c1ccc(CN(Cc2ccccn2)S(=O)(=O)c2ccc(Cl)cc2)cc1` [Example 152] belongs 0.75 µM; to `N#Cc1ccc(CN(C2CCc3cc(Cl)ccc32)S(=O)(=O)c2ccc(Cl)cc2)cc1` (stereo not shown) [Example 299], 5.5 µM. Same read-out and setting: to `O=C(NCc1ccccc1)c1ccc(CN(Cc2ccc(F)cc2)S(=O)(=O)c2ccc(Cl)cc2)cc1` [Example 34, 4-{[[(4-chlorophenyl)sulfonyl](4-fluorobenzyl)amino]methyl}-N-phenyl methyl benzamide] belongs 1.8 µM; to `O=[N+]([O-])c1ccc(S(=O)(=O)N(Cc2ccc(-c3nnn[nH]3)cc2)Cc2ccccn2)cc1` [Example 140], 2 µM; to `CCOC(=O)c1ccc(CN(Cc2ccccn2)S(=O)(=O)c2ccc(OCC)cc2)cc1` [Example 191], 13 µM. Take `COc1cccc(S(=O)(=O)N(Cc2ccc(C#N)cc2)Cc2ccccn2)c1` [Example 178]: the IC50 on CXCR3 [2] came to 2 µM. On the same count and under the same terms, the figure for `O=S(=O)(c1ccc(Cl)cc1)N(Cc1ccc(-c2nnn[nH]2)cc1)Cc1ccccc1-c1ccccc1` [Example 103] is 3.45 µM. Still for that read-out and setting: the figure for `N#Cc1ccc(CN(C(=O)c2ccccn2)S(=O)(=O)c2ccc(Cl)cc2)cc1` [Example 279, 4-Chloro-N-(4-cyano-benzyl)-N-(pyridine-2-carbonyl)-benzenesulfonamide] is 10 µM; for `CCOc1ccc(S(=O)(=O)N(Cc2ccc(C(=O)O)c(OC)c2)Cc2ccccn2)cc1` [Example 346] it is 7 µM; for `O=C(NC(C(=O)O)c1ccccc1)c1ccc(CN(Cc2ccccn2)S(=O)(=O)c2ccc(Cl)cc2)cc1` (stereo not shown) [Example 151] it is 0.15 µM.

For `CCOc1ccc(S(=O)(=O)N(Cc2ccc(C(=O)NC3(c4cccc(C#N)c4)CC3)cc2)Cc2ccccn2)cc1` [Example 85], the IC50 on CXCR3 [2] turned out to be 4 µM. Same read-out and setting: the figure for `N#Cc1ccc(CN(Cc2ccccn2)S(=O)(=O)c2ccc([N+](=O)[O-])cc2)cc1` [Example 172] is 0.7 µM; for `CC(CNC(=O)c1ccc(CN(Cc2cccnc2)S(=O)(=O)c2ccc(C#N)cc2)cc1)c1ccccc1` (stereo not shown) [Example 112] it is 1.25 µM.

For the compound `CS(=O)(=O)NC(=O)c1ccc(CN(Cc2ccccn2)S(=O)(=O)c2ccc(Cl)cc2)cc1` [Example 48, N-(methanesulfonyl)-4{[[(4-chlorophenyl)sulfonyl](pyridin-2-ylmethyl)amino]methyl}benzamide], the IC50 on CXCR3 [2] is 8.3 µM. The same measure, in the same setting: to `COc1ccc(S(=O)(=O)N(Cc2ccccc2)Cc2ccc(C(=O)NCc3ccccc3)cc2)cc1` [Example 31] belongs 1.9 µM; to `O=C(NS(=O)(=O)c1cccnc1)c1ccc(CN(Cc2ccccn2)S(=O)(=O)c2ccc(Cl)cc2)cc1` [Example 52, N-(3-pyridylsulfonyl)-4-{[[(4-chlorophenyl)sulfonyl](pyridin-2-ylmethyl)amino]methyl}benzamide], 0.285 µM.
